According to PubChem BioAssay (NCI):
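Five concentrations, 48 hours, 96-well plates. At the GI50, growth is halved. TGI is the concentration that stops growth completely.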

What was measured:
Experiment in all cases: NCI-60 cell line screen, 48 h
786-0 renal = test system: 786-0 renal
A498 renal = test system: A498 renal
A549 NSCLC = test system: A549 NSCLC
ACHN renal = test system: ACHN renal
BT-549 breast = test system: BT-549 breast
CAKI-1 renal = test system: CAKI-1 renal
CCRF-CEM leukemia = test system: CCRF-CEM leukemia
COLO 205 colon = test system: COLO 205 colon
DU-145 prostate = test system: DU-145 prostate
EKVX NSCLC = test system: EKVX NSCLC
HCC-2998 colon = test system: HCC-2998 colon
HCT-116 colon = test system: HCT-116 colon
HCT-15 colon = test system: HCT-15 colon
HL-60(TB) leukemia = test system: HL-60(TB) leukemia
HOP-62 NSCLC = test system: HOP-62 NSCLC
HOP-92 NSCLC = test system: HOP-92 NSCLC
HS 578T breast = test system: HS 578T breast
HT29 colon = test system: HT29 colon
IGROV1 ovarian = test system: IGROV1 ovarian
K-562 leukemia = test system: K-562 leukemia
KM12 colon = test system: KM12 colon
LOX IMVI melanoma = test system: LOX IMVI melanoma
M14 melanoma = test system: M14 melanoma
MALME-3M melanoma = test system: MALME-3M melanoma
MCF7 breast = test system: MCF7 breast
MDA-MB-231 breast = test system: MDA-MB-231 breast
MDA-MB-435 = test system: MDA-MB-435
MOLT-4 leukemia = test system: MOLT-4 leukemia
NCI-H226 lung = test system: NCI-H226 lung
NCI-H23 lung = test system: NCI-H23 lung
NCI-H460 lung = test system: NCI-H460 lung
NCI-H522 lung = test system: NCI-H522 lung
NCI/ADR-RES ovarian = test system: NCI/ADR-RES ovarian
OVCAR-3 ovarian = test system: OVCAR-3 ovarian
OVCAR-4 ovarian = test system: OVCAR-4 ovarian
OVCAR-5 ovarian = test system: OVCAR-5 ovarian
OVCAR-8 ovarian = test system: OVCAR-8 ovarian
PC-3 prostate = test system: PC-3 prostate
RPMI-8226 leukemia = test system: RPMI-8226 leukemia
RXF 393 renal = test system: RXF 393 renal
SF-268 CNS = test system: SF-268 CNS
SF-295 CNS = test system: SF-295 CNS
SF-539 CNS = test system: SF-539 CNS
SK-MEL-2 melanoma = test system: SK-MEL-2 melanoma
SK-MEL-28 melanoma = test system: SK-MEL-28 melanoma
SK-MEL-5 melanoma = test system: SK-MEL-5 melanoma
SK-OV-3 ovarian = test system: SK-OV-3 ovarian
SN12C renal = test system: SN12C renal
SNB-19 CNS = test system: SNB-19 CNS
SNB-75 CNS = test system: SNB-75 CNS
SR leukemia = test system: SR leukemia
SW-620 colon = test system: SW-620 colon
T-47D breast = test system: T-47D breast
TK-10 renal = test system: TK-10 renal
U251 CNS = test system: U251 CNS
UACC-257 melanoma = test system: UACC-257 melanoma
UACC-62 melanoma = test system: UACC-62 melanoma
UO-31 renal = test system: UO-31 renal

## C/C=C(\C)C(=O)O[C@@H]1C=CC(=O)O[C@H]1CNC(=O)[C@H](C)O
786-0 renal
  GI50: 23.6 µM
  TGI: 73.5 µM
A498 renal
  GI50: 21.2 µM
  TGI: 53 µM
A549 NSCLC
  GI50: 30.5 µM
  TGI: > 88.4 µM
ACHN renal
  GI50: 15.9 µM
  TGI: 31.2 µM
BT-549 breast
  GI50: 12.5 µM
  TGI: 28 µM
CAKI-1 renal
  GI50: 17.8 µM
  TGI: 36.5 µM
CCRF-CEM leukemia
  GI50: 6.1 µM
  TGI: 26.2 µM
COLO 205 colon
  GI50: 8.96 µM
  TGI: 27.2 µM
DU-145 prostate
  GI50: 22.6 µM
  TGI: 69.1 µM
EKVX NSCLC
  GI50: 20.9 µM
  TGI: 49.5 µM
HCC-2998 colon
  GI50: 20.4 µM
  TGI: 40.9 µM
HCT-116 colon
  GI50: 9.48 µM
  TGI: 24.2 µM
HCT-15 colon
  GI50: 18.5 µM
  TGI: 45.4 µM
HL-60(TB) leukemia
  GI50: 8.67 µM
  TGI: 32.3 µM
HOP-62 NSCLC
  GI50: 26.4 µM
  TGI: 65.3 µM
HOP-92 NSCLC
  GI50: 17.4 µM
  TGI: 37.5 µM
HS 578T breast
  GI50: 16.7 µM
  TGI: 53.8 µM
HT29 colon
  GI50: 17.7 µM
  TGI: 40.6 µM
IGROV1 ovarian
  GI50: 26.6 µM
  TGI: > 78.1 µM
K-562 leukemia
  GI50: 16.9 µM
  TGI: 64.2 µM
KM12 colon
  GI50: 17.3 µM
  TGI: 36.3 µM
LOX IMVI melanoma
  GI50: 15.9 µM
  TGI: 31.3 µM
M14 melanoma
  GI50: 18.6 µM
  TGI: 49.1 µM
MALME-3M melanoma
  GI50: 15 µM
  TGI: 32.8 µM
MCF7 breast
  GI50: 15 µM
  TGI: 46.7 µM
MDA-MB-231 breast
  GI50: 21.8 µM
  TGI: 45.5 µM
MDA-MB-435
  GI50: 22.6 µM
  TGI: 82.1 µM
MOLT-4 leukemia
  TGI: 5.35 µM
NCI-H226 lung
  GI50: 28.9 µM
  TGI: > 81.4 µM
NCI-H23 lung
  GI50: 25.6 µM
  TGI: > 75.4 µM
NCI-H460 lung
  GI50: 22.2 µM
  TGI: 67.9 µM
NCI-H522 lung
  GI50: 13.1 µM
  TGI: 30.5 µM
NCI/ADR-RES ovarian
  GI50: 34.6 µM
  TGI: > 100 µM
OVCAR-3 ovarian
  GI50: 17.4 µM
  TGI: 37.8 µM
OVCAR-4 ovarian
  GI50: 19 µM
  TGI: 42.9 µM
OVCAR-5 ovarian
  GI50: 32 µM
  TGI: > 73.2 µM
OVCAR-8 ovarian
  GI50: 30.5 µM
  TGI: > 100 µM
PC-3 prostate
  GI50: 27.3 µM
  TGI: > 92.2 µM
RPMI-8226 leukemia
  GI50: 9.12 µM
  TGI: 33.3 µM
RXF 393 renal
  GI50: 18.3 µM
  TGI: 42.9 µM
SF-268 CNS
  GI50: 17 µM
  TGI: 51.3 µM
SF-295 CNS
  GI50: 27.7 µM
  TGI: > 66.7 µM
SF-539 CNS
  GI50: 23.3 µM
  TGI: 57.5 µM
SK-MEL-2 melanoma
  GI50: 20 µM
  TGI: 48.5 µM
SK-MEL-28 melanoma
  GI50: 16.1 µM
  TGI: 35.8 µM
SK-MEL-5 melanoma
  GI50: 19.6 µM
  TGI: 38.8 µM
SK-OV-3 ovarian
  GI50: 39.4 µM
  TGI: 98.9 µM
SN12C renal
  GI50: 26.9 µM
  TGI: > 75.6 µM
SNB-19 CNS
  GI50: 27 µM
  TGI: > 74.8 µM
SNB-75 CNS
  GI50: 24.4 µM
  TGI: > 74.3 µM
SR leukemia
  GI50: 6.78 µM
  TGI: 48.6 µM
SW-620 colon
  GI50: 10 µM
  TGI: 25.4 µM
T-47D breast
  GI50: 21.9 µM
  TGI: > 66.8 µM
TK-10 renal
  GI50: 18.9 µM
  TGI: 43.2 µM
U251 CNS
  GI50: 20.5 µM
  TGI: 54.7 µM
UACC-257 melanoma
  GI50: 26.9 µM
  TGI: > 84.4 µM
UACC-62 melanoma
  GI50: 16.9 µM
  TGI: 37.7 µM
UO-31 renal
  GI50: 21.3 µM
  TGI: 59.1 µM
